Assay results published in BindingDB's records for patent US20250122166 (ST. JUDE CHILDREN''S RESEARCH HOSPITAL, INC., 2025).

target: Protein cereblon (Homo sapiens, UniProt Q96SW2); assay: Crbn Fluorescence Polarization Assay
Method: In this competitive fluorescent polarization assay Cy5 conjugated lenalidomide analog (Cy5—O-Len)1 was used as a fluorescent probe. 6XHis-CRBN-DDB1 protein (200 nM) and Cy5—O-Len probe (30 nM) were combined in 20 mM HEPES pH 7, 150 mM NaCl, 0.005% Tween-20 assay buffer. 20 μL of this assay cocktail was dispensed into wells of Corning 3821 black 384-well plates. Compounds were transferred to the assay plate from a dose-response plate using a Pintool on a Biomek FXP Laboratory Automation Workstation (Beckman Coulter). The plates were incubated in the dark for 1 hour at room temperature and then read on an Envision plate reader (PerkinElmer, Massachusetts, USA). IC50 values were determined using a proprietary software RISE (Robust Investigation of Screening Experiments), developed in house on the Pipeline Pilot platform (Biovia, v. 17.2.0). Data represent the mean of three independent determinations.

| Compound | IC50 |
| --- | --- |
| O=C1CCC(N2Cc3c(CNC(=O)c4ccc(Br)cc4)cccc3C2=O)C(=O)N1 (stereo not drawn) [US20250122166, Compound 18] | < 1 µM |
| O=C1CCC(N2Cc3c(CNC(=O)c4ccc(Cl)c(C(F)(F)F)c4)cccc3C2=O)C(=O)N1 (stereo not drawn) [US20250122166, Compound 21] | < 1 µM |
| O=C1CCC(N2Cc3c(CNC(=O)c4ccc(Cl)cc4Cl)cccc3C2=O)C(=O)N1 (stereo not drawn) [US20250122166, Compound 28] | < 1 µM |
